# In patent US11021444B2, “Antiviral compounds” (priority 2013, dated 2021):
# Like-named read-outs stand apart in the source and are kept apart here.
# Key:
# [1] = test system: Respiratory Syncytial Virus (RSV) long strain; assay: microbe, parasite or virus in culture; type: cell-based; details: human respiratory syncytial virus, Tables A and B list compounds by EC50 band
# Outline: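 CPE-reduction format: viability measured colorimetrically with CCK-8 (450 nm, 630 nm reference) after 3-4 h, following 5-day infection at 37 °C, 5% CO2. Cells were HEp-2; inoculum 100 TCID50/well; duplicate 9-point 1/3 series starting at 100 μM or 1 μM.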
# [2] = Cytotoxicity Determination (CCK-8, without addition of virus); type: cell-based; details: human, 50% cytotoxicity concentration (CC50)
# Outline: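 Cytotoxicity was measured by CCK-8 after 3-4 hours at 37 °C, following 5 days of uninfected exposure at 37 °C and 5% CO2. Compounds ran as duplicate 7-point 1/2 dilutions starting at 100 μM, with 1% final DMSO. HEp-2 cells had been plated at 1,500/well the day before.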
# recombinant RSV complex = recombinant RSV complex (Human respiratory syncytial virus A, UniProt P28887); assay: RSV Polymerase Inhibition Assay; type: biochemical
# Outline: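 Inhibition measured as reduced incorporation of radiolabel into RNA products, detected by scintillation counting. Reactions: recombinant RSV complex (10 nM), RNA oligonucleotides, Tris-HCl pH 7.5, 6 mM MgCl2, inhibitor titration, 2 h at 30 °C, EDTA stop.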
# RSV replicon = assay: microbe, parasite or virus in culture; type: cell-based; details: human respiratory syncytial virus, read-out: EC50, the concentration of the drug required for reducing RSV replicon RNA by 50%
# Experimental: The Renilla Luciferase Assay System (Promega, Cat. #E2820) was used to measure anti-RSV replicon activity. […] Luminescence was recorded using a Perkin Elmer multilabel counter Victor3V. EC50, the concentration of the drug required for reducing RSV replicon RNA by 50% in relation to the untreated cell control value, was calculated from the plot of percentage reductions of the optical density (OD) value against the drug concentrations using the Microsoft Excel forecast function.
# [3] = HEp-2, 120 h, read-out: 50% effective concentration (EC50), HEp-2 cells infected with RSV long strain, 5 days, CCK-8 readout
# [4] = 120 h, read-out: 50% effective concentration (EC50), HEp-2 cells infected with RSV long strain, 5 days, CCK-8 readout
# recombinant RSV complex, sequence (P28887 whole entry): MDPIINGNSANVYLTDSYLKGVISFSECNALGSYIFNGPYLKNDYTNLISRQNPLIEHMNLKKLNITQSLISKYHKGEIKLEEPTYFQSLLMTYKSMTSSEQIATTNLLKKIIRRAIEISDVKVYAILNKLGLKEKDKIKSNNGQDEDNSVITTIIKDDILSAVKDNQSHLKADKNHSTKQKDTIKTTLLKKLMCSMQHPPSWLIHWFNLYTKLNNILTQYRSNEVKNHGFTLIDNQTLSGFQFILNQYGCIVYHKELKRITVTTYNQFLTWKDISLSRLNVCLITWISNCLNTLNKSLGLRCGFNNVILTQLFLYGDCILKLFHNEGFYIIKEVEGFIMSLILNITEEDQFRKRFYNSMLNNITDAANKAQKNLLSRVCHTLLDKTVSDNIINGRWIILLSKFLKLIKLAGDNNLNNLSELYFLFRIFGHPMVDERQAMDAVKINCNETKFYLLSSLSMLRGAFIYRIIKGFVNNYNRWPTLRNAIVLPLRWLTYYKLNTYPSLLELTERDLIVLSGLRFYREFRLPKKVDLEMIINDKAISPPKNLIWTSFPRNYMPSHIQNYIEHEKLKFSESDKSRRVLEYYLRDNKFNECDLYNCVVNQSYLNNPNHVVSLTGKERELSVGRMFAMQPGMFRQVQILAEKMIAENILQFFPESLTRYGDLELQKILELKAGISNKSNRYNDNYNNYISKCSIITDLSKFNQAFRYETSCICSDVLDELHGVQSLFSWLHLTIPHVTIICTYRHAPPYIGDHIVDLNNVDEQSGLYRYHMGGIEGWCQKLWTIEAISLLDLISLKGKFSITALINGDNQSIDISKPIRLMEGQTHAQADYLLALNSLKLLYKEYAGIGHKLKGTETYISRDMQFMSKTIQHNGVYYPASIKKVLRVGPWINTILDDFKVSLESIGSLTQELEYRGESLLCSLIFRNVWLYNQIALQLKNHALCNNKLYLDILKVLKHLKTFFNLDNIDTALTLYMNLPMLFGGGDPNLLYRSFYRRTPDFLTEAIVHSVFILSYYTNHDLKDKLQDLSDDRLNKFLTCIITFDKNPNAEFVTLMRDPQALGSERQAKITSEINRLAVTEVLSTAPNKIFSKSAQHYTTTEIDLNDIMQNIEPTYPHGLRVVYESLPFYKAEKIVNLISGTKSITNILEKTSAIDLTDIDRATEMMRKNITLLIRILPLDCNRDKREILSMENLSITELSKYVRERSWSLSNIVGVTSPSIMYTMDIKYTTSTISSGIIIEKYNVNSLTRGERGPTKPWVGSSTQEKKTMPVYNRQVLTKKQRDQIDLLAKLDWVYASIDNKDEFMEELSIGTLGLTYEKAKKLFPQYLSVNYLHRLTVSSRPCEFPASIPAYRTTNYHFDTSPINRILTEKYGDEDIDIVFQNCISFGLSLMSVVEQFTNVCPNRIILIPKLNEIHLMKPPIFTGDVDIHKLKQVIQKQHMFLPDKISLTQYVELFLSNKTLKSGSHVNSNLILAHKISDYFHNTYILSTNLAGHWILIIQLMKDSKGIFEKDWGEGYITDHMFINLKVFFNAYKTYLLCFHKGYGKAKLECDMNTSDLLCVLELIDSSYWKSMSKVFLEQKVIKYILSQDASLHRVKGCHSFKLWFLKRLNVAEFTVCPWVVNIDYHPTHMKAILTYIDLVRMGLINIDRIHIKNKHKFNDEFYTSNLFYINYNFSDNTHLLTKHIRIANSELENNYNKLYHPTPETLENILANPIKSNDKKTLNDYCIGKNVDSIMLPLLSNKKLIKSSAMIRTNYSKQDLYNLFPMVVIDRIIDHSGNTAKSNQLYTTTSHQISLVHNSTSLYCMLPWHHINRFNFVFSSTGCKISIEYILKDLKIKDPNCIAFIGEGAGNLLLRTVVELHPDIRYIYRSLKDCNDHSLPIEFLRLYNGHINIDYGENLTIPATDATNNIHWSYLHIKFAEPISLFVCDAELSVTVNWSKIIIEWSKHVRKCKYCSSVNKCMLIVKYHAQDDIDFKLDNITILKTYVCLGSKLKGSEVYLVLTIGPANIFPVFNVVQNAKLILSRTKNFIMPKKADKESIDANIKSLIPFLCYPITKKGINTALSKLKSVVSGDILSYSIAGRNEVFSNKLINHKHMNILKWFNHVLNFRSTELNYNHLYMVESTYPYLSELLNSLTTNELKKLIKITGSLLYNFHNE
# recombinant RSV complex, sequence (P03421 whole entry, further chain): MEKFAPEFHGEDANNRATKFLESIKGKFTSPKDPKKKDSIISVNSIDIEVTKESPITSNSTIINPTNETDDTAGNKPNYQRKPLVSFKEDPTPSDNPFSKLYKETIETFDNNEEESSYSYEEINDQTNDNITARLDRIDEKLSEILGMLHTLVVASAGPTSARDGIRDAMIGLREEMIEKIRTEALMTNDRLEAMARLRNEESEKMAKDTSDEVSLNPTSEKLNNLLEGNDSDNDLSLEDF
smiles,measurement,setting,value
COc1cc(C(=O)NC[C@@](O)(c2cc(C(C)(C)N)cc(-c3ccc(F)cc3)n2)C(F)(F)F)ccc1OCC(N)=O [Compound 561],EC50,[1]; [3],1000 to 50000 nM
same,CC50 at 5 days,[2],> 100000 nM
same,IC50,recombinant RSV complex,< 10000 nM
same,EC50,RSV replicon,< 1000 nM
COc1cc(C(=O)NCC(O)(CO)c2ccc(OC)c(-c3ccc(F)c(Cl)c3)n2)ccc1OC1CC1 (stereo not shown) [Compound 384],EC50,[1]; [3],< 1000 nM
same,CC50 at 5 days,[2],10000 to 100000 nM
same,IC50,recombinant RSV complex,< 1000 nM
same,EC50,RSV replicon,< 1000 nM
COc1cc(C(=O)NCC(O)(c2cc(C(C)(C)NC(N)=O)cc(-c3ccc(F)c(Cl)c3)n2)C(F)(F)F)ccc1OC1CC1 (stereo not shown) [Compound 516],EC50,[1]; [3],< 1000 nM
same,CC50 at 5 days,[2],10000 to 100000 nM
same,IC50,recombinant RSV complex,< 1000 nM
same,EC50,RSV replicon,< 1000 nM
COc1cc(C(=O)NCC(O)(c2cc3c(c(-c4ccc(F)c(Cl)c4)n2)OCCC3(C)C)C2CC2)ccc1OCCO (stereo not shown) [Compound 312],EC50,[1]; [3],< 1000 nM
same,CC50 at 5 days,[2],10000 to 100000 nM
same,IC50,recombinant RSV complex,< 1000 nM
same,EC50,RSV replicon,< 1000 nM
COc1cc(C(=O)NCC(O)(c2ccc(OC)c(-c3ccc(F)c(Cl)c3)n2)C(F)F)ccc1OC1CC1 (stereo not shown) [Compound 445],EC50,[1]; [3],< 1000 nM
same,CC50 at 5 days,[2],10000 to 100000 nM
same,IC50,recombinant RSV complex,< 1000 nM
same,EC50,RSV replicon,< 1000 nM
COc1cc(C(=O)NC[C@](O)(c2cc3c(c(-c4ccc(F)cc4)n2)OCC3(C)CN)C(F)(F)F)ccc1OCCO (stereo partly shown) [Compound 633b],EC50,[1]; [3],< 1000 nM
same,CC50 at 5 days,[2],10000 to 100000 nM
same,IC50,recombinant RSV complex,< 1000 nM
same,EC50,RSV replicon,< 1000 nM
COc1cc(C(=O)NCC(O)(c2ccc(OC)c(-c3ccc(F)c(Cl)c3)n2)C2CC2)ccc1OC(C)(F)F (stereo not shown) [Compound 437],EC50,[1]; [3],1000 to 50000 nM
same,CC50 at 5 days,[2],10000 to 100000 nM
same,IC50,recombinant RSV complex,< 1000 nM
same,EC50,RSV replicon,< 1000 nM
COc1cc(C(=O)NCC(O)(c2cc(C(N)CO)cc(-c3ccc(F)c(Cl)c3)n2)C(F)(F)F)ccc1OC1CC1 (stereo not shown) [Compound 528],EC50,[1]; [3],< 1000 nM
same,CC50 at 5 days,[2],10000 to 100000 nM
same,IC50,recombinant RSV complex,< 1000 nM
same,EC50,RSV replicon,< 1000 nM
CCOC(=O)NC(C)(C)c1cc(-c2ccc(F)c(Cl)c2)nc(C(O)(CNC(=O)c2ccc(OC3CC3)c(OC)c2)C(F)(F)F)c1 (stereo not shown) [Compound 331],EC50,[1]; [3],< 1000 nM
same,CC50 at 5 days,[2],> 100000 nM
same,IC50,"recombinant RSV complex; read-out: IC50 (compound concentration at which the enzyme-catalyzed rate was reduced by 50%), 10 nM recombinant RSV complex, 2 h at 30° C., Tables E, F and G list compounds by IC50 band",< 1000 nM
same,EC50,RSV replicon,< 1000 nM
COc1cc(C(=O)NCC(O)(c2cc3c(c(-c4ccc(F)cc4)n2)OCC3(N)C(C)C)C(F)(F)F)ccc1OC1CC1 (stereo not shown) [Compound 560],EC50,[1]; [4],< 1000 nM
same,CC50 at 5 days,[2],10000 to 100000 nM
same,IC50,recombinant RSV complex,< 1000 nM
same,EC50,RSV replicon,< 1000 nM
COc1cc(C(=O)NCC(N)(c2cc(C(C)(C)N)cc(-c3ccc(F)c(Cl)c3)n2)C(F)(F)F)ccc1OC1CC1 (stereo not shown) [Compound 504],EC50,[1]; [3],< 1000 nM
same,CC50 at 5 days,[2],10000 to 100000 nM
same,IC50,recombinant RSV complex,< 1000 nM
same,EC50,RSV replicon,< 1000 nM
COc1cc(C(=O)NCC(C)(F)c2ccc(OC)c(-c3ccc(F)c(Cl)c3)n2)ccc1OCCO (stereo not shown) [Compound 365],EC50,[1]; [3],< 1000 nM
same,CC50 at 5 days,[2],10000 to 100000 nM
same,IC50,recombinant RSV complex,< 1000 nM
same,EC50,RSV replicon,< 1000 nM
COc1ccc(C(O)(CNC(=O)c2ccc(OCC(N)=O)c(Cl)c2)C(F)(F)F)nc1-c1ccc(F)c(Cl)c1 (stereo not shown) [Compound 237],EC50,[1]; [3],< 1000 nM
same,CC50 at 5 days,[2],10000 to 100000 nM
same,IC50,recombinant RSV complex,< 1000 nM
same,EC50,RSV replicon,< 1000 nM
COc1cc(C(=O)NCC(O)(c2ccc(OC)c(-c3ccc(F)c(Cl)c3)n2)C(F)(F)F)ccc1OCC(F)F (stereo not shown) [Compound 373],EC50,[1]; [3],< 1000 nM
same,CC50 at 5 days,[2],> 100000 nM
same,IC50,recombinant RSV complex,< 1000 nM
same,EC50,RSV replicon,< 1000 nM
COc1cc(C(=O)NCC(C)(O)c2ccc(OC)c(-c3c[nH]c4c(F)cccc34)n2)ccc1OCCO (racemic) [Compound 117],EC50,[1]; [3],< 1000 nM
same,CC50 at 5 days,[2],10000 to 100000 nM
same,IC50,recombinant RSV complex,< 1000 nM
same,EC50,RSV replicon,< 1000 nM
COc1cc(C(=O)NCC(C)(O)c2ccc(OC)c(-c3ccc(F)c(Cl)c3)n2)ccc1OCCO (racemic) [Compound 120],EC50,[1]; [4],< 1000 nM
same,CC50 at 5 days,[2],> 100000 nM
same,IC50,recombinant RSV complex,< 1000 nM
same,EC50,RSV replicon,< 1000 nM
COc1cc(C(=O)NCC(O)(c2cc(C(C)(C)NCC(=O)O)cc(-c3ccc(F)c(Cl)c3)n2)C(F)(F)F)ccc1OC1CC1 (stereo not shown) [Compound 515],EC50,[1]; [3],< 1000 nM
same,CC50 at 5 days,[2],10000 to 100000 nM
same,IC50,recombinant RSV complex,< 1000 nM
same,EC50,RSV replicon,< 1000 nM
COc1cc(C(=O)NCC(O)(c2cc(C(C)(C)N)c(OC)c(-c3ccc(F)cc3)n2)C(F)(F)F)ccc1OC1CC1 (stereo not shown) [Compound 594],EC50,[1]; [3],< 1000 nM
same,CC50 at 5 days,[2],10000 to 100000 nM
same,IC50,recombinant RSV complex,< 1000 nM
same,EC50,RSV replicon,< 1000 nM
COc1cc(C(=O)NCC(C)(O)c2ccc(OC)c(-c3ccc(F)c(Cl)c3)n2)ccc1OCCF (stereo not shown) [Compound 119],EC50,[1]; [3],< 1000 nM
same,CC50 at 5 days,[2],10000 to 100000 nM
same,IC50,recombinant RSV complex,< 1000 nM
same,EC50,RSV replicon,< 1000 nM
COc1cc(C(=O)NCC(O)(c2cc3c(c(-c4ccc(F)c(Cl)c4)n2)OCC3N)C(F)(F)F)ccc1OC1CC1 (stereo not shown) [Compound 525],EC50,[1]; [3],< 1000 nM
same,CC50 at 5 days,[2],10000 to 100000 nM
same,IC50,recombinant RSV complex,< 1000 nM
same,EC50,RSV replicon,< 1000 nM
COc1cc(C(=O)NCC(O)(c2cc(C(C)(C)NS(C)(=O)=O)cc(-c3ccc(F)c(Cl)c3)n2)C(F)(F)F)ccc1OC1CC1 (stereo not shown) [Compound 330],EC50,[1]; [4],< 1000 nM
same,CC50 at 5 days,[2],10000 to 100000 nM
same,IC50,recombinant RSV complex,< 1000 nM
same,EC50,RSV replicon,< 1000 nM
COc1cc(C(=O)NCC(O)(c2cc(C(C)(C)N)cc(-c3ccc(F)c(Cl)c3)n2)C(F)(F)F)ccc1OCCOC(=O)C(C)C (stereo not shown) [Compound 490],EC50,[1]; [3],< 1000 nM
same,CC50 at 5 days,[2],10000 to 100000 nM
same,IC50,recombinant RSV complex,< 10000 nM
same,EC50,RSV replicon,< 1000 nM
COc1cc(C(=O)NCC(O)(c2cc3c(c(-c4ccc(F)cc4)n2)OCC3(C)N)C(F)(F)F)cc2ccc(=O)[nH]c12 (stereo not shown) [Compound 642],EC50,[1]; [3],< 1000 nM
same,CC50 at 5 days,[2],10000 to 100000 nM
same,IC50,recombinant RSV complex,< 1000 nM
same,EC50,RSV replicon,< 1000 nM
CCC1(N)COc2c1cc(C(O)(CNC(=O)c1ccc(OC3CC3)c(OC)c1)C(F)(F)F)nc2-c1ccc(F)cc1 (stereo not shown) [Compound 531],EC50,[1]; [3],< 1000 nM
same,CC50 at 5 days,[2],10000 to 100000 nM
same,IC50,recombinant RSV complex,< 1000 nM
same,EC50,RSV replicon,< 1000 nM
COc1cc(C(=O)NCC(O)(c2cc3c(c(-c4ccc(F)cc4)n2)OCC3(C)N)C(F)(F)F)ccc1OCCO (stereo not shown) [Compound 539],EC50,[1]; [3],< 1000 nM
same,CC50 at 5 days,[2],10000 to 100000 nM
same,IC50,recombinant RSV complex,< 1000 nM
same,EC50,RSV replicon,< 1000 nM
COc1cc(C(=O)NCC(O)(c2cc(C(C)(N)CF)cc(-c3ccc(F)cc3)n2)C(F)(F)F)ccc1OC[C@@H](C)O (stereo partly shown) [Compound 614],EC50,[1]; [3],< 1000 nM
same,CC50 at 5 days,[2],10000 to 100000 nM
same,IC50,recombinant RSV complex,< 1000 nM
same,EC50,RSV replicon,< 1000 nM
COc1cc(C(=O)NCC(O)(c2cc(C(C)(C)N)cc(-c3ccc(C#N)cc3)n2)C(F)(F)F)ccc1OCCO (stereo not shown) [Compound 623b],EC50,[1]; [3],< 1000 nM
same,CC50 at 5 days,[2],> 100000 nM
same,IC50,recombinant RSV complex,< 1000 nM
same,EC50,RSV replicon,< 1000 nM
COc1cc(C(=O)NCC(O)(c2cc(C(C)(C)NC(C)=N)cc(-c3ccc(F)c(Cl)c3)n2)C(F)(F)F)ccc1OC1CC1 (stereo not shown) [Compound 579],EC50,[1]; [3],< 1000 nM
same,CC50 at 5 days,[2],10000 to 100000 nM
same,IC50,recombinant RSV complex,< 1000 nM
same,EC50,RSV replicon,< 1000 nM
CNC(C)(C)c1cc(-c2ccc(F)c(Cl)c2)nc(C(O)(CNC(=O)c2ccc(O[C@H]3CCNC3=O)c(OC)c2)C(F)(F)F)c1 (stereo partly shown) [Compound 485],EC50,[1]; [3],< 1000 nM
same,CC50 at 5 days,[2],10000 to 100000 nM
same,IC50,recombinant RSV complex,< 1000 nM
same,EC50,RSV replicon,< 1000 nM
COc1cc(C(=O)NCC(=O)c2cc3c(c(-c4ccc(F)c(C(C)F)c4)n2)OCCC3(C)C)ccc1OCCO (stereo not shown) [Compound 298],EC50,[1]; [3],< 1000 nM
same,CC50 at 5 days,[2],10000 to 100000 nM
same,IC50,recombinant RSV complex,< 1000 nM
same,EC50,RSV replicon,< 1000 nM
COc1cc(C(=O)NCC(O)(CO)c2ccc(OC)c(-c3ccc(F)c(Cl)c3)n2)ccc1OCCO (stereo not shown) [Compound 176],EC50,[1]; [3],< 1000 nM
same,CC50 at 5 days,[2],> 100000 nM
same,IC50,recombinant RSV complex,< 1000 nM
same,EC50,RSV replicon,< 1000 nM
